Where two headings read alike, the source gives them in different places.
How the values were obtained:
[1] = system: human nasal tissue mast cells activated with LPS; experiment: Ex vivo LPS-induced tryptase release (degranulation) of human nasal tissue mast cells; type: cell-based; conditions: for Tryptase: with LPS; for inhibition at 3 µM / inhibition at 10 µM / inhibition at 30 µM / inhibition at 60 µM / IC50: Homo sapiens, Mast cell; for inhibition at 3 µM / inhibition at 10 µM / inhibition at 30 µM / inhibition at 60 µM: read-out: percentage inhibition of degranulation (tryptase); for IC50: read-out: IC50 ex vivo inhibition of tryptase release; for HillSlope / LogIC50: LPS
Source text: Fresh human nasal mucosa was used (middle nasal turbinate), which was surgically removed as standard procedure during nose correction surgeries (septorhinoplasty with conchotomy). Only tissues from those patients who had not previously received medication in the form of cortisone preparations or antihistamines were used. The removed tissue was cleansed immediately after the surgical removal with Epilife Medium (Thermo Fisher Scientific, No. […]500), referred to as “medium” in terms of ex vivo experiments, a chemically defined, serum-free full medium for epithelial cells and keratinocytes. The tissue was then cut into 12 pieces of equal size, cleansed again in the medium, and the exact fresh weight of the cut tissue pieces was determined for later normalization and then stored overnight in cold medium. The weight of the tissue pieces varied between 10 and 20 mg.
After an one hour of pre-incubation with the respective compositions i), ii) or iii), 4 μg/ml lipopolysaccharide (LPS, Sigma-Aldrich GmbH, L4516) was added to each well—except for one well serving as the negative control—in order to induce tryptase degranulation. Then, 250 μl supernatant were taken from each well at the time points of 15 minutes, 60 minutes (one hour), 120 minutes (two hours), 240 minutes (four hours), 480 minutes (eight hours), and 1200 minutes (20 hours) after stimulation with LPS and the supernatants were directly frozen. Immediately after the removal of 250 μl supernatant, the volume in each well was increased to the original level and the original composition by adding 250 μl of the respective composition i), ii) and iii).
For the determination of the amount of degranulated tryptase, the frozen supernatants were thawed at 22° C. and then subjected to a tryptase ELISA Kit from Boster Biological Technology Co., Ltd (No. EZ0898, Assay Range: 156-10000 pg/ml, Sensitivity: <15 pg/ml) according to manufacturer's instructions, and the ELISA measurements were performed with the Multiskan Go instrument from Thermo Scientific and the SkanIt Re 4.1 software.
The statistical analysis was conducted in two steps. In a first step, the raw measurement values were normalized to 10 mg tissue. In a second step, a correction factor was introduced for all time points of supernatant removal to compensate for the 250 μl supernatant taken for analysis at each time and the subsequent re-addition of medium incl. factors. The statistical calculations were performed with Microsoft Excel 2010.
For the analysis, a non-linear regression (variable slope—4-parametric) was used. The program setting “Dose-Response-Inhibition” was applied for an automatic calculation, readout and display of the IC50 values.

[2] = system: patient with therapy-resistant systemic mastocytosis; experiment: Human in-vivo off-label clinical test, symptom intensity by visual analog score (VAS)
Experimental: The results of the clinical test were closely monitored, captured and documented together with patient. The patient is and diagnosed with systemic mastocytosis (WHO criteria, KIT816V positiv) with official diagnosis. […] The current daily treatment of the patient is: H1 antihistamine 3× daily, cromolyn 4×200 mg daily, PPI 110 mg daily, Vitamine C/Vitamine D upon need, Actonel, upon need decortin 40 to 60 mg.

With `CCNC1=Nc2ccc(Cl)cc2C(C)(c2ccccc2)O1` (racemic) [Etifoxine, 6-Chloro-2-N-ethyl-4-methyl-4-phenyl-4H-3,1-benzoxazine-2-amine] as the compound, how does the Tryptase ([1]; 3 μM Etifoxine, 15 min) read?
Its Tryptase is 1107.7 pg/ml/10 mg tissue.

And the Tryptase ([1]; 3 μM Etifoxine, 60 min)?
Its Tryptase is 1822.9 pg/ml/10 mg tissue.

And the Tryptase ([1]; 3 μM Etifoxine, 120 min)?
Its Tryptase is 2116.7 pg/ml/10 mg tissue.

What about the Tryptase ([1]; 3 μM Etifoxine, 240 min) of the same compound?
Its Tryptase is 3032.7 pg/ml/10 mg tissue.

What about the Tryptase ([1]; 3 μM Etifoxine, 480 min) of the same compound?
Its Tryptase is 3622.0 pg/ml/10 mg tissue.

What about the Tryptase ([1]; 3 μM Etifoxine, 1200 min) of the same compound?
Its Tryptase is 5419.5 pg/ml/10 mg tissue.

And the Tryptase ([1]; 10 μM Etifoxine, 15 min)?
Its Tryptase is 763.6 pg/ml/10 mg tissue.

What about the Tryptase ([1]; 10 μM Etifoxine, 60 min) of the same compound?
The Tryptase was 1252.6 pg/ml/10 mg tissue.

What about the Tryptase ([1]; 10 μM Etifoxine, 120 min) of the same compound?
The Tryptase was 2035.3 pg/ml/10 mg tissue.

What about the Tryptase ([1]; 10 μM Etifoxine, 240 min) of the same compound?
Its Tryptase is 2901.8 pg/ml/10 mg tissue.

And the Tryptase ([1]; 10 μM Etifoxine, 480 min)?
Its Tryptase is 3275.1 pg/ml/10 mg tissue.

What about the Tryptase ([1]; 10 μM Etifoxine, 1200 min) of the same compound?
Its Tryptase is 4687.0 pg/ml/10 mg tissue.

And the Tryptase ([1]; 30 μM Etifoxine, 15 min)?
The Tryptase was 676.0 pg/ml/10 mg tissue.

And the Tryptase ([1]; 30 μM Etifoxine, 60 min)?
Its Tryptase is 857.5 pg/ml/10 mg tissue.

What about the Tryptase ([1]; 30 μM Etifoxine, 120 min) of the same compound?
The Tryptase was 1619.4 pg/ml/10 mg tissue.

What about the Tryptase ([1]; 30 μM Etifoxine, 240 min) of the same compound?
Its Tryptase is 2276.4 pg/ml/10 mg tissue.

And the Tryptase ([1]; 30 μM Etifoxine, 480 min)?
The Tryptase was 2678.2 pg/ml/10 mg tissue.

And the Tryptase ([1]; 30 μM Etifoxine, 1200 min)?
Its Tryptase is 3675.9 pg/ml/10 mg tissue.

And the Tryptase ([1]; 60 μM Etifoxine, 15 min)?
The Tryptase was 881.1 pg/ml/10 mg tissue.

What about the Tryptase ([1]; 60 μM Etifoxine, 60 min) of the same compound?
Its Tryptase is 1054.5 pg/ml/10 mg tissue.

And the Tryptase ([1]; 60 μM Etifoxine, 120 min)?
The Tryptase was 1592.2 pg/ml/10 mg tissue.

And the Tryptase ([1]; 60 μM Etifoxine, 240 min)?
The Tryptase was 2241.2 pg/ml/10 mg tissue.

And the Tryptase ([1]; 60 μM Etifoxine, 480 min)?
Its Tryptase is 2720.1 pg/ml/10 mg tissue.

What about the Tryptase ([1]; 60 μM Etifoxine, 1200 min) of the same compound?
The Tryptase was 3472.1 pg/ml/10 mg tissue.

What about the inhibition at 3 µM ([1]; 2 h) of the same compound?
Its inhibition at 3 µM is 79%.

And the inhibition at 10 µM ([1]; 2 h)?
The inhibition at 10 µM was 83%.

What about the inhibition at 30 µM ([1]; 2 h) of the same compound?
The inhibition at 30 µM was 105%.

And the inhibition at 60 µM ([1]; 2 h)?
The inhibition at 60 µM was 106%.

And the inhibition at 3 µM ([1]; 4 h)?
The inhibition at 3 µM was 104%.

And the inhibition at 10 µM ([1]; 4 h)?
The inhibition at 10 µM was 107%.

And the inhibition at 30 µM ([1]; 4 h)?
The inhibition at 30 µM was 123%.

And the inhibition at 60 µM ([1]; 4 h)?
Its inhibition at 60 µM is 124%.

What about the IC50 ([1]; 2 hours (120 minutes) after LPS addition) of the same compound?
Its IC50 is 14.7 µM.

And the IC50 ([1]; 4 hours (240 minutes) after LPS addition)?
The IC50 was 15.1 µM.

And the HillSlope ([1]; Tryptase 2 h)?
Its HillSlope is −4.183.

What about the LogIC50 ([1]; Tryptase 2 h) of the same compound?
Its LogIC50 is 1.168.

What about the HillSlope ([1]; Tryptase 4 h) of the same compound?
Its HillSlope is −4.101.

What about the LogIC50 ([1]; Tryptase 4 h) of the same compound?
Its LogIC50 is 1.179.

And the “inhibition of LPS-triggered tryptase degranulation achieved (complete)” value ([1]; summary statement, mast cells of human nasal pieces)?
Its value is 100%.

And the “total clinical symptom intensity score (VAS)” value ([2]; after 6 weeks treatment, VAS baseline value 8, scale 0-10)?
Its value is 4.

And the side effects ([2]; during the 6 week oral treatment, one patient)?
The side effects was “No side effects occurred”.

What about the “reduction of total clinical symptom intensity score” value ([2]; one patient, oral 50 to 150 mg daily, over 6 weeks) of the same compound?
Its value is 50%.

Source: patent publication US20220265667A1 (priority 2019, published 2022)
